Source: patent publication US10195190B2, “Local delivery forms of acriflavine for treating tumors” (The Johns Hopkins University, priority 2015, dated 2019)

Tests used:
[1] = tested on: 9 L gliosarcoma; experiment: Survival of F344 rats intracranially implanted with 9 L gliosarcoma; format: in vivo, rat; details: for median survival: systemic treatment (ACF 5 mg/kg/daily from Day 0 or Day 5; oral temozolomide 50 mg/kg/day Days 5-9)
[2] = tested on: 9 L rat gliosarcoma cells; experiment: Acriflavine cytotoxicity in vitro, CCK-8 assay, 9 L cells; format: cell-based; details: 9 L rat glioma cells, 24 h co-incubation, read-out: IC50 concentration, cell viability
Description: (§1) The cytotoxicity of ACF was analyzed in rodent 9 L gliosarcoma (obtained from the Brain Tumor Research Center, University of California at San Francisco) and F98 glioma (a gift from R. Barth, Ohio State University) cell lines as well as in commercial and primary human glioblastoma cell lines, U87 (ATCC) and GB1A, respectively. The cells were plated in 96-well plates at a density of 4×10^3 cells/well, cultured for 24 h and treated with ACF (concentration range of 0.2 μM-25 μM). After co-incubation with ACF in medium for 24 h, cell growth was assessed using a CCK-8 assay (Dojindo, Kumamoto, Japan) according to manufacturers' protocol. Data are shown as mean+/−SEM and the inhibitory concentration 50% (IC50)+95% confidence interval and R^2 are reported.
(§2) The following concentrations of acriflavine: 0.0249 μM, 0.1245 μM, 0.249 μM, 2.5 μM, 25 μM, 50 μM, 500 μM, and 1000 μM were tested. CCK-8 assay was added to the wells, and the optical density was read at 450 nm by a microplate reader.

[3] = tested on: glioma cell lines (9 L gliosarcoma, F98 glioma, U87, GB1A); experiment: Acriflavine cytotoxicity in vitro, CCK-8 assay, all glioma cell lines tested; format: cell-based, rodent and human; details: 24 h
Description: as §1, §2

In the case of “3,6-diamino-10-methylacridinium chloride mixed with 3,6-acridinediamine [ACF]”, the “survival benefit compared to the control” value ([1]; systemic ACF started on Day 0 or Day 5) is reported as “no benefit in survival”, the median survival [1] is reported as 14 days and the IC50 [2] is reported as 1070 nM. The inhibition of proliferation [3] was “inhibited proliferation in all glioma cell lines tested in a dose-dependent manner”.
`Cn1nnc2c(C(N)=O)ncn2c1=O` [temozolomide, Temozolomide] showed a median survival [1] of 28 days.
